From US4918064A, “Phenyl glycines for use in reducing neurotoxic injury” (G. D. Searle & Co., priority 1987, dated 1990)

Assays:
KA (kainate) receptor = test: [3H]kainate receptor binding assay, synaptic plasma membranes; conditions: [3H]kainate 0.5 nM, 0-4° C., 60 min
Description: (§1) Synaptic plasma membranes (SPM) were prepared as previously described [Monahan, J. B. and Michel, J., "Identification and Characterization of an N-methyl-D-aspartate-specific L[^3 H]glutamate Recognition Site in Synaptic Plasma Membranes, J. Neurochem., 48, 1699-1708 (1987)]. The SPM were stored at a concentration of 10-15 mg/ml in 0.32M sucrose, 0.5 mM EDTA, 1 mM MgSO4, 5 mM Tris/SO4, pH 7.4, under liquid nitrogen. The identity and purity of the subcellular fractions were confirmed by both electron microscopy and marker enzymes. Protein concentrations were determined by using a modification of the method of Lowry [Ohnishi, S. T. and Barr, J. K., "A Simplified Method of Quantitating Proteins Using the Biuret and Phenol Reagents", Anal. Biochem., 86, 193-197 (1978)].
(§2) The SPM were treated identically for the [^3 H]AMPA (QUIS), [^3 H]kainate and sodium-dependent L-[^3 H]-glumatate binding assays. The SPM were thawed at room temperature, diluted twenty-fold with 50 mM Tris/acetate, pH 7.4, incubated at 37° C. for 30 minutes, and centrifuged at 100,000 g for 15 minutes. The dilution, incubation, and centrifugation was repeated a total of three times.
(§3) The basic procedure for the receptor subclass binding assays was similar. This general method involved adding the radioligand (12.5 nM L-[^3 H]glutamate; 0.5 nM [^3 H]kainate or 10 nM [^3 H]AMPA) to the appropriate concentration of the test compound and initiating the assay by the addition of ice cold synaptic plasma membranes (0.2-0.45 mg). The binding assays were performed in 1.5 mL centrifuge tubes with the total volume adjusted to 1.0 mL. .Additions of test compounds were made in 50 mM Tris/acetate, pH 7.4 and incubations were carried out at 0°-4° C. The incubation time for the NMDA and the AMPA binding assays was 10 minutes, for the kainate binding assay 60 minutes and for the sodium-dependent glutamate binding assay 15 minutes. The AMPA binding assay contained 100 mM KSCN and the sodium-dependent glutamate binding assay contained 150 mM sodium acetate in addition to the previously described reagents.
(§4) To terminate the incubation, the samples were centrifuged for 15 minutes at 12,000 g and 4° C. in a Beckman Microfuge 12. The supernatant was aspirated and the pelleted membranes dissolved in Beckman BTS-450 tissue solubilizer for a minimum of 6 hours at room temperature. Beckman MP scintillation cocktail containing 7 mL/1 acetic acid was then added and the samples counted on a Beckman LS 5800 or 3801 liquid scintillation counter with automatic corrections for quenching and counting efficiency.
(§5) Nonspecific binding was defined as the residual binding in the presence of either excess L-glutamate (0.1-0.4 mM), kainate (0.01 mM), or NMDA (0.5 mM), and was 15-25% of the total binding in the NMDA binding assay, 19-27% in the AMPA binding assay, 20-30% in the kainate binding assay and 10-15% in the sodium-dependent binding assay. Radioligand binding to the synaptic plasma membranes was analyzed using Scatchard and Hill transformations and the Ki values of the compounds determined using logit-log transformations. Calculations and regression analysis were performed using templates developed for Lotus 1, 2, 3 as previously described [Pullan, L. M. "Automated Radioligand Receptor Binding Analysis with Templates for Lotus", Computer Appln. Biosci., 3 131 (1987)]. Binding results are reported in Table II for example compounds of the invention. […]

hippocampal neurons [1] = test: Hypoxia Survival Assay, cultured hippocampal neurons (MTT); type: cell-based, Sprague-Dawley rat; conditions: 50 μM compound
Description: Hippocampal neurons were obtained from embryonic day 17 Sprague-Dawley rats. The brains were removed and the hippocampus dissected, placed in ice-cold Leibovitz L-15 medium, carefully stripped of any remaining meninges, and minced into small pieces using scissors. The tissue was rinsed with calcium-magnesium-free Hanks' Balanced Salt Solution and incubated with 0.25% trypsin (Worthington), 40 μg/ml DNAase (Sigma) for 30 minutes at 36° C. Following incubation, the cells were rinsed with 10% serum-containing medium and dissociated by gentle trituration using a reduced bore diameter Pasteur pipet. […]
The neuronal survival assay utilized the compound MTT [3-(4,5-dimethylthiazol-2-yl)-2,5-diphenyl tetrazolium bromide], a pale yellow substrate that is cleaved by the mitochondrial enzyme succinate-dehydrogenase to yield a dark blue formazan product. […] The precipitate was then solubilized using 0.08N HCl/isopropanol mixture and the absorbance measured with an ELISA plate reader (Dynatech MR600) using a test wavelength of 570 nm and a reference wavelength of 630 nm. […]
The cells were grown for 2-3 weeks in 5% CO2 -in-air humidified environment at 36° C. to establish a thick network of neuronal processes with numerous spontaneously active synapses. […] Following 2 hours of exposure to normal O2 tension, the cultures were processed for morphological and quantitive biochemical neuronal cell viability assays.

[2] = target: Quis (quisqualate) receptor; test: [3H]AMPA (QUIS) receptor binding assay, synaptic plasma membranes; conditions: [3H]AMPA 10 nM, 100 mM KSCN, 0-4° C., 10 min
Description: as §1, §2, §3, §4, §5

hippocampal neurons [3] = test: Glutamate Toxicity Survival Assay, cultured hippocampal neurons (MTT); type: cell-based, Sprague-Dawley rat; conditions: 5 μM compound
Description: Hippocampal neurons were obtained from embryonic day 17 Sprague-Dawley rats. The brains were removed and the hippocampus dissected, placed in ice-cold Leibovitz L-15 medium, carefully stripped of any remaining meninges, and minced into small pieces using scissors. […] Following incubation, the cells were rinsed with 10% serum-containing medium and dissociated by gentle trituration using a reduced bore diameter Pasteur pipet. The cells were plated on a polylysine-coated (0.5 rg/ml, Sigma) 96-well microtiter plates at 30,000 cells/well.
The neuronal survival assay utilized the compound MTT [3-(4,5-dimethylthiazol-2-yl)-2,5-diphenyl tetrazolium bromide], a pale yellow substrate that is cleaved by the mitochondrial enzyme succinate-dehydrogenase to yield a dark blue formazan product. This process requires active mitochondria, present only in live cells. Cultures of hippocampal neurons grown in 96-well plates were incubated with 1 mg/ml MTT at 36° C. in a 10% CO2 -in-air incubator for 30-60 minutes. At the end of the incubation, a dark blue precipitate outlined only viable cells. The precipitate was then solubilized using 0.08N HCl/isopropanol mixture and the absorbance measured with an ELISA plate reader (Dynatech MR600) using a test wavelength of 570 nm and a reference wavelength of 630 nm. The resulting optical density is directly proportional to the number of viable cells.

NC(C(=O)O)c1ccc(CP(=O)(O)O)cc1 (stereo not shown) [Example VI, 4-(Phosphonomethyl)phenylglycine]
Receptor binding, KA (Ki) (KA (kainate) receptor): > 300 µM
protection of neurons from hypoxic insult (hippocampal neurons [1]): Maximum protection of neurons from hypoxic insult
Ki [2]: > 300 µM
protection of neurons from glutamate toxicity (hippocampal neurons [3]): Significant protection
